pIC50: −log10 of the molar value. Converted amounts (≈) assume the structure as drawn. Values belong to the compound of their own block, whether it stands above or below them. The source made the active and inactive calls. The rule behind the calls is not given here.
Experiments:
[1] = target: T1, Pituitary adenylate cyclase-activating polypeptide type I receptor (Homo sapiens, UniProt P41586); test: Antagonist activity at PAC-1 receptor (unknown origin) expressed in CHO cells assessed as inhibition of PACAP-induced CREB phosphorylation at 1 nM pretreated for 30 mins followed by PACAP stimulation for 30 mins by western blot analysis; type: cell-based; details: filed as antagonist, time 60.0 min
Target sequence in this assay (P41586 21-468 limits assumed): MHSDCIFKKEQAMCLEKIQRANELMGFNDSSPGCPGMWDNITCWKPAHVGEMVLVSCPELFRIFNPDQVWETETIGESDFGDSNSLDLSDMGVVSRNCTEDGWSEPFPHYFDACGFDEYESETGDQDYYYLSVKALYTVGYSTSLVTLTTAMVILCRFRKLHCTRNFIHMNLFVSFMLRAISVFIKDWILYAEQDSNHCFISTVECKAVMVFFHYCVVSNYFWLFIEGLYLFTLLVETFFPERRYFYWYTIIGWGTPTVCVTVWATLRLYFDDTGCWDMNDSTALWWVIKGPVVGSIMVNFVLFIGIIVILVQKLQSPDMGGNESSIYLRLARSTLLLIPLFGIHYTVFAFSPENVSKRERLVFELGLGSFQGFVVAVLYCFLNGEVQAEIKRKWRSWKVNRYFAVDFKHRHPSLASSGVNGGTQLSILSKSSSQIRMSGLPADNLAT

[2] = Aqueous solubility of the compound in phosphate buffered saline at 100 uM at pH 7.4 by HPLC analysis; type: physicochemical
[3] = Metabolic stability in mouse liver microsomes assessed as parent compound remaining in presence of NADPH at 0.5 uM measured after 10 mins by LC-MS/MS analysis; type: ADME, Microsome; details: read-out: Stability
Mus musculus [4] = test: Antiallodynic activity in ddY mouse assessed as inhibition of SNL-induced mechanical allodynia at 30 mg/kg, ip administered once daily for 7 days and measured at 1 hr post-last dosage; type: functional, organism-based; details: time 7.0 day
[5] = Half life in C57BL/6J mouse at 30 mg/kg, po measured up to 24 hrs by LC-MS/MS analysis; type: ADME, organism-based; details: in vivo
[6] = Half life in C57BL/6J mouse at 30 mg/kg, ip measured up to 24 hrs by LC-MS/MS analysis; type: ADME, organism-based; details: in vivo
[7] = Metabolic stability in human liver microsomes assessed as parent compound remaining in presence of NADPH at 0.5 uM measured after 60 mins by LC-MS/MS analysis; type: ADME, Microsome; details: read-out: Stability
Mus musculus [8] = test: Antiallodynic activity in ddY mouse assessed as inhibition of spinal nerve ligation-evoked mechanical allodynia at 10 pmol administered via IT as single dose and measured after 2 to 4 hrs; type: functional, organism-based; details: time 2-4 hrs
[9] = Tmax in C57BL/6J mouse at 30 mg/kg, po measured up to 24 hrs by LC-MS/MS analysis; type: ADME, organism-based; details: in vivo
[10] = Tmax in C57BL/6J mouse at 30 mg/kg, ip measured up to 24 hrs by LC-MS/MS analysis; type: ADME, organism-based; details: in vivo
[11] = Cmax in C57BL/6J mouse at 30 mg/kg, po measured up to 24 hrs by LC-MS/MS analysis; type: ADME, organism-based; set-up: dose 30 mg/kg, time < 24 hrs, route po; details: in vivo
Mus musculus [12] = test: Antiallodynic activity in ddY mouse assessed as inhibition of SNL-induced mechanical allodynia at 30 mg/kg, ip administered once daily for 7 days and measured for 3 days after termination of repetitive drug administration; type: functional, organism-based; details: time 7.0 day
[13] = Permeability of the compound across apical to basolateral side in human Caco-2 cells at 25 uM incubated for 2 hrs by LC/MS/MS analysis; type: ADME, cell-based; details: read-out: permeability
[14] = Metabolic stability in mouse liver microsomes assessed as parent compound remaining in presence of NADPH at 0.5 uM measured after 60 mins by LC-MS/MS analysis; type: ADME, Microsome; details: read-out: Stability
[15] = Plasma protein binding in human measured after 5 hrs by LC-MS/MS analysis; type: ADME, cell-free; details: read-out: PPB (converted)
[16] = Metabolic stability in human liver microsomes assessed as parent compound remaining in presence of NADPH at 0.5 uM measured after 10 mins by LC-MS/MS analysis; type: ADME, Microsome; details: read-out: Stability
[17] = Plasma protein binding in mouse measured after 5 hrs by LC-MS/MS analysis; type: ADME, cell-free; details: read-out: PPB (converted)
Mus musculus [18] = test: Antiallodynic activity in ddY mouse assessed as inhibition of spinal nerve ligation-evoked mechanical allodynia at 10 pmol administered via IT as single dose and measured after 3 hrs; type: functional, organism-based
Mus musculus [19] = test: Antiallodynic activity in ddY mouse assessed as inhibition of PACAP-evoked mechanical allodynia at 10 to 100 pmol administered via IT as single dose and measured after 14 days; type: functional, organism-based; details: dose 10-100 pmol, time 14.0 day
[20] = Cmax in C57BL/6J mouse at 30 mg/kg, ip measured up to 24 hrs by LC-MS/MS analysis; type: ADME, organism-based; set-up: time < 24 hrs, dose 30 mg/kg, route ip; details: in vivo
Mus musculus [21] = test: Inhibition of PACAP-induced aversive behaviour in it dosed ddY mouse administered as single dose and measured for 30 mins; type: functional, organism-based; details: dose 10-100 pmol, DDE = dose-dependent effect
[22] = target: T1, Pituitary adenylate cyclase-activating polypeptide type I receptor; test: Antagonist activity at PAC-1 receptor (unknown origin) expressed in CHO cells assessed as inhibition of PACAP-induced increase in intracellular cAMP level pretreated for 30 mins followed by PACAP stimulation measured after 1 hr by cAMP-Glo assay; type: cell-based; details: for Activity: filed as antagonist, time 90.0 min, DDE = dose-dependent effect

Activity [1]: Active
SMILES: COc1cccc(C2CC(=O)Nc3nc(N)[nH]c(=O)c32)c1 (centres undefined)

Activity [1]: Active
SMILES: C=CCOc1cccc(C2CC(=O)Nc3nc(N)[nH]c(=O)c32)c1 (centres undefined)

Activity [1]: Active
SMILES: CCc1cccc(C2CC(=O)Nc3nc(N)[nH]c(=O)c32)c1 (centres undefined)

Activity [1]: Active
SMILES: Nc1nc2c(c(=O)[nH]1)C(c1cccc(Br)c1)CC(=O)N2 (centres undefined)

Activity [1]: Active
SMILES: Nc1nc2c(c(=O)[nH]1)C(c1cccc(Cl)c1)CC(=O)N2 (centres undefined)

solubility at 100 µM [2]: 93.3 µM (≈ 31.7 µg/mL)
remaining at 10 min, 0.5 µM [3]: 91%
half-life [5]: 2.75 h
half-life [6]: 2.4 h
remaining at 1 h, 0.5 µM [7]: 92%
Tmax [9]: 0.83 h
Tmax [10]: 1 h
Cmax [11]: 20.8 µM
Papp A→B at 2 h, 25 µM [13]: 1.6 ×10⁻⁶ cm/s
Activity [1]: Active
remaining at 1 h, 0.5 µM [14]: 93%
fraction unbound at 5 h [15]: 0.11
remaining at 10 min, 0.5 µM [16]: 95%
fraction unbound at 5 h [17]: 0.298
Cmax [20]: 40.6 µM
pIC50 [22]: 9.96
Activity [22]: Dde
SMILES: Nc1nc2c(c(=O)[nH]1)C(c1cccc(OC(F)(F)F)c1)CC(=O)N2 (centres undefined)
Activity (Mus musculus [4]): Active
Activity (Mus musculus [8]): Active
Activity (Mus musculus [12]): Active
Activity (Mus musculus [18]): Active
Activity (Mus musculus [19]): Active
inhibition (Mus musculus [21]): Dde

Activity [1]: Active
SMILES: CCCOc1cccc(C2CC(=O)Nc3nc(N)[nH]c(=O)c32)c1 (centres undefined)

solubility at 100 µM [2]: 27.9 µM (≈ 8.38 µg/mL)
remaining at 10 min, 0.5 µM [3]: 92%
half-life [5]: 1.32 h
half-life [6]: 2.29 h
remaining at 1 h, 0.5 µM [7]: 93%
Tmax [9]: 0.25 h
Tmax [10]: 0.25 h
Cmax [11]: 1.93 µM
Papp A→B at 2 h, 25 µM [13]: 0.3 ×10⁻⁶ cm/s
Activity [1]: Active
remaining at 1 h, 0.5 µM [14]: 84%
fraction unbound at 5 h [15]: 0.345
remaining at 10 min, 0.5 µM [16]: 93%
fraction unbound at 5 h [17]: 0.474
Cmax [20]: 29.3 µM
SMILES: CCOc1cccc(C2CC(=O)Nc3nc(N)[nH]c(=O)c32)c1 (centres undefined)
Activity (Mus musculus [19]): Active
inhibition (Mus musculus [21]): Dde

Activity [1]: Active
SMILES: CCCCc1cccc(C2CC(=O)Nc3nc(N)[nH]c(=O)c32)c1 (centres undefined)

Activity [1]: Active
SMILES: CCCc1cccc(C2CC(=O)Nc3nc(N)[nH]c(=O)c32)c1 (centres undefined)

The remaining lines, values behind:

SMILES: CCOc1cc(C2CC(=O)Nc3nc(N)[nH]c(=O)c32)ccc1OC (centres undefined)
Activity [1]: Active

SMILES: CCOc1ccc(C2CC(=O)Nc3nc(N)[nH]c(=O)c32)cc1OC (centres undefined)
Activity [1]: Active

SMILES: CCOc1ccc(C2CC(=O)Nc3nc(N)[nH]c(=O)c32)cc1Cl (centres undefined)
Activity [1]: Active

SMILES: CCOc1ccc(C2CC(=O)Nc3nc(N)[nH]c(=O)c32)cc1Br (centres undefined)
Activity [1]: Active

SMILES: CCOc1ccc(C2CC(=O)Nc3nc(N)[nH]c(=O)c32)cc1OCC (centres undefined)
Activity [1]: Active

SMILES: CCOc1ccc(C2CC(=O)Nc3nc(N)[nH]c(=O)c32)cc1C (centres undefined)
Activity [1]: Active

SMILES: C=CCOc1ccc(C2CC(=O)Nc3nc(N)[nH]c(=O)c32)cc1OC (centres undefined)
solubility at 100 µM [2]: 92.2 µM (≈ 31.6 µg/mL)
remaining at 10 min, 0.5 µM [3]: 96%
Activity (Mus musculus [4]): Active
half-life [5]: 1.72 h
half-life [6]: 2.19 h
remaining at 1 h, 0.5 µM [7]: 91%
Activity (Mus musculus [8]): Active
Tmax [9]: 0.5 h
Tmax [10]: 0.67 h
Cmax [11]: 0.79 µM
Papp A→B at 2 h, 25 µM [13]: 0.3 ×10⁻⁶ cm/s
Activity [1]: Active
remaining at 1 h, 0.5 µM [14]: 94%
fraction unbound at 5 h [15]: 0.304
remaining at 10 min, 0.5 µM [16]: 93%
fraction unbound at 5 h [17]: 0.505
Activity (Mus musculus [18]): Active
Activity (Mus musculus [19]): Active
Cmax [20]: 14.3 µM
inhibition (Mus musculus [21]): Dde
pIC50 [22]: 8.83
Activity [22]: Dde

SMILES: CCCOc1cc(C2CC(=O)Nc3nc(N)[nH]c(=O)c32)ccc1OC (centres undefined)
Activity [1]: Active

SMILES: Nc1nc2c(c(=O)[nH]1)C(c1ccc(F)c(F)c1)CC(=O)N2 (centres undefined)
Activity [1]: Active

SMILES: CCCOc1ccc(C2CC(=O)Nc3nc(N)[nH]c(=O)c32)cc1OC (centres undefined)
Activity [1]: Active

Reference: ChEMBL document CHEMBL5131488, “Design and synthesis of pyrido[2,3-d]pyrimidine derivatives for a novel PAC1 receptor antagonist” (Eur J Med Chem, 2022)
